ChEMBL document CHEMBL6134856, “Rapid Response Antimicrobial Peptide Design Strategy Driven by Meta-Learning for Emerging Drug-Resistant Pathogens” (J Med Chem, 2025)

What was measured:
[1] = tested on: Acinetobacter baumannii; assay: Antimicrobial activity against SAM/CTX/AK/CRO/CN drugs-resistant Acinetobacter baumannii 0004 assessed as inhibition of bacterial growth incubated for approximately 18 hrs by resazurin dye based broth microdilution assay; assay type: functional
[2] = tested on: Staphylococcus aureus; assay: Antimicrobial activity against Staphylococcus aureus ATCC 25923 assessed as inhibition of bacterial growth incubated for approximately 18 hrs by resazurin dye based broth microdilution assay; assay type: functional
[3] = tested on: Candida albicans; assay: Antimicrobial activity against Candida albicans ATCC 14053 assessed as inhibition of bacterial growth incubated for approximately 18 hrs by resazurin dye based broth microdilution assay; assay type: functional
[4] = Hemolytic activity in Sprague-Dawley rat erythrocytes incubated for 1 hr by multifunctional microplate reader analysis; assay type: toxicity, cell-based, Erythrocyte; details: for HC50 at 1 h: Sprague-Dawley, erythrocytes; for HC5: erythrocyte, 1 h
[5] = tested on: Acinetobacter baumannii; assay: Antimicrobial activity against SAM/CTX/AK/CRO/CN drugs-resistant Acinetobacter baumannii 0101 assessed as inhibition of bacterial growth incubated for approximately 18 hrs by resazurin dye based broth microdilution assay; assay type: functional
[6] = tested on: Acinetobacter baumannii; assay: Antimicrobial activity against CTX/AK/CRO drugs-resistant Acinetobacter baumannii 0110 assessed as inhibition of bacterial growth incubated for approximately 18 hrs by resazurin dye based broth microdilution assay; assay type: functional
[7] = tested on: Acinetobacter baumannii; assay: Antimicrobial activity against CTX/CRO/CN drugs-resistant Acinetobacter baumannii 0214 assessed as inhibition of bacterial growth incubated for approximately 18 hrs by resazurin dye based broth microdilution assay; assay type: functional
[8] = tested on: Acinetobacter baumannii; assay: Antimicrobial activity against SAM/CTX/CRO/CN drugs-resistant Acinetobacter baumannii 0320 assessed as inhibition of bacterial growth incubated for approximately 18 hrs by resazurin dye based broth microdilution assay; assay type: functional
[9] = tested on: Acinetobacter baumannii; assay: Antimicrobial activity against SAM-resistant Acinetobacter baumannii 0413 assessed as inhibition of bacterial growth incubated for approximately 18 hrs by resazurin dye based broth microdilution assay; assay type: functional

| Substance | MIC [1] [µM] | MIC [2] [µM] | MIC [3] [µM] | HC50 at 1 h [4] [µM] | HC5 [4] [µM] | MIC [5] [µM] | MIC [6] [µM] | MIC [7] [µM] | MIC [8] [µM] | MIC [9] [µM] |
| --- | --- | --- | --- | --- | --- | --- | --- | --- | --- | --- |
| H-AWKAKLKRLAIAWKR-OH | 4 | > 32 | 8 | > 256 | > 256 | 8 | 8 | 4 | 4 | 4 |
| H-FWKKVFKWIWRVLHNFG-OH | 8 |  |  | 12.6 | 1.28 |  |  |  |  |  |
| H-GLWKRWKKVLWGAKNKI-OH | 2 | 16 | 8 | > 256 | > 256 | 4 | 4 | 4 | 2 | 2 |
| H-GWAKRLVQRLADWLRKF-OH | 2 | 8 | > 32 | 43.9 | 7.22 |  |  |  |  |  |
| H-IWLAVWKGLLKRWLH-OH | 2 | 2 | 16 | 10.5 | 1.17 |  |  |  |  |  |
| H-KIRWLLYWIRRKRL-OH | 16 |  |  |  |  |  |  |  |  |  |
| H-KLKRWLVWLIRKLW-OH | 16 |  |  |  |  |  |  |  |  |  |
| H-KRIWRKILWWIKWR-OH | 8 |  |  |  |  |  |  |  |  |  |
| H-KWARRLVYLIANYWKKR-OH | 2 | > 32 | > 32 | 117 | 14.63 |  |  |  |  |  |
| H-KWFKKLPKILHKLAKKW-OH | 2 | 2 | > 32 | 294 | 38.67 | 2 | 2 | 4 | 2 | 2 |
| H-KWKIFKRIVGRILRYLR-OH | 4 | 8 | > 32 | 15.7 | 1.47 |  |  |  |  |  |
| H-LWKILKKIWRVLKNWN-OH | 4 | 8 | 32 | 35.9 | 7.59 |  |  |  |  |  |
| H-RIRFKWRWWMRIRLKWY-OH | 16 | > 32 | > 32 | > 256 | > 256 |  |  |  |  |  |
| H-RIWVLIYRWYRKWY-OH | 32 |  |  |  |  |  |  |  |  |  |
| H-RLIKIWWIYRRKWR-OH | 128 |  |  |  |  |  |  |  |  |  |
| H-RLWKIWLVWIRWRNQK-OH | 16 | > 32 | > 32 | 330 | 27.41 |  |  |  |  |  |
| H-RLWKIWWKIWRVLI-OH | 16 |  |  |  |  |  |  |  |  |  |
| H-RQIKIWFQNRRWGLQLK-OH | 16 | > 32 | > 32 | > 256 | > 256 | 16 | 16 | 16 | 16 | 8 |
| H-RRRLILWILWRRLR-OH | 4 | 8 | > 32 | 166 | 10.09 |  |  |  |  |  |
| H-RWRKIWFLWRYKIW-OH | 128 |  |  |  |  |  |  |  |  |  |
| H-VLAANRLVRRLAQKIAR-OH | 32 | > 32 | 16 | > 256 | > 256 |  |  |  |  |  |
| H-WFKKLLKLALKWAKYA-OH | 4 | 2 | > 32 | 13.1 | 1.46 |  |  |  |  |  |
